The values below come from publication PMC5855688, “BC-Box Motif-Mediated Neuronal Differentiation of Somatic Stem Cells” (International Journal of Molecular Sciences, 2018).

The test system of assay [1] is skin-derived precursors (SKPs). Kind of assay: Western blot analysis of neuronal markers in NDD peptide-treated cells. The following applies: Figure 6A. The assay is classed as cell-based, rat (neonate Wistar). As to the method: (§1) Rodent skin-derived precursor cells (SKPs), which can differentiate to neurons, were used. SKPs were previously isolated from the back dermis of neonate Wistar rats by the authors. These cells were cultured in growth medium composed of DMEM/F12 (1:1; Gibco, Grand Island, NY, USA) containing 2% B27 supplement (Gibco), 20 ng/mL epidermal growth factor (EGF; Upstate Biotechnology, Lake Placid, NY, USA), and 40 ng/mL bFGF (PeproTech EC Ltd., Rocky Hill, NJ, USA) in a humidified incubator at 37 °C with 5% CO2. The floating clusters of cultured cells were centrifuged and dissociated into a single-cell suspension by use of a Pasteur pipette with a flame-polished tip. These single cells were then re-suspended into at a concentration of 50,000 cells/mL for passage or experiments.
(§2) For neuronal differentiation, cells were dissociated into a single-cell suspension by use of a Pasteur pipette and re-suspended into a concentration of 50,000 cells/mL in DMEM/F12 without serum, neurotrophic factors or growth factors. Then, the cells were cultured on poly-L-lysine-coated dishes or cover glasses, and the synthesized peptides at concentrations from 1 to 5 μM were added to the culture medium and delivered into the cells. Three days or more later, the cells were used for morphological, immunocytochemical, immunohistochemical, electrophysiological and immunoprecipitation studies, as well as for Western blot analysis.
(§3) Cultured cells were washed 3 times in cold PBS and then scraped into ice-cold PBS. After incubation on ice for 10 min, the cells were lysed with lysis buffer and centrifuged, after which the supernatants were collected. Each sample was separated by SDS-PAGE under reducing conditions and transferred electrophoretically to nitrocellulose filters. Non-specific binding of antibody was blocked by incubation with 5% donkey serum for 1 h. Western blots were probed with anti-MAP2 antibody, anti-NFH antibody, anti-ChAT antibody, anti-GAD antibody, anti-rhodopsin antibody, anti-TH antibody, and anti-elongin C antibody (Santa Cruz, San Diego, CA, USA) followed by horseradish peroxidase-conjugated secondary antibodies. Protein bands were detected by using a chemical luminescence detection system (ECL Plus Western Blotting Reagent Pack, Amersham, Hemel Hempstead, UK). Images were analyzed with LAS-1000 (Fujifilm, Tokyo, Japan), and the density of the bands was determined by using Image Gauge software (Fujifilm).
Background: In western blotting, separated proteins are transferred to a membrane and probed.

Assay [2] relates to skin-derived precursors (SKPs). The assay is described as follows: Immunocytochemistry of neuronal markers in NDD peptide-treated cells. The note with it: Figure 6B. The assay is classed as cell-based, rat (neonate Wistar). As to the method:
as §1, §2
Cultured cells were fixed with 4% paraformaldehyde in PBS (Phosphate buffered saline) for 10 min at room temperature. Cells were incubated for 1 h at room temperature with primary antibodies. Antibodies against anti-MAP2 antibody (Sigma-Aldrich, St. Louis, MO, USA), anti-Neurofilment-H (NFH) antibody (Sigma-Aldrich), anti-NeuN antibody (Merk Millipore, Billerica, MA, USA), anti-GFAP antibody (DAKO, Santa Clara, CA, USA), anti-tyrosine hydroxylase (TH) antibody (Merk Millipore, Billerica, MA, USA), anti-choline acetyl transferase (ChAT) antibody (Abbiotec, San Diego, CA, USA), anti-glutamic acid decaboxylase (GAD) antibody (Enzo Life Sciences, Flamingdale, NY, USA), and anti-rhodopsin antibody (Santa Cruz, San Diego, CA, USA) were used. After incubation with primary antibody, the cells were incubated for 1 h with secondary antibody, either rhodamine-conjugated anti-mouse IgG (Sigma-Aldrich) or FITC-conjugated anti-rabbit IgG (Sigma-Aldrich). Nuclear counterstaining was done with DAPI (Molecular Probes, Eugene, OR, USA) or TO-PRO-3 (Molecular Probes), and observations were made with a fluorescence microscope system (FV300, Olympus, Tokyo, Japan). We counted the number of immuno-positive cells with a given antibody in 4 to 6 random non-overlapping visual fields (50–200 cells per field) in each experiment. At least 2 experiments were performed per condition. The degree of positivity was expressed as the rate of immuno-positive cells to the total number of nuclei stained with DAP1 or TO-PRO-3.

Another assay has as its system STAT3. Kind of assay: Western blotting of STAT3 before and after peptide treatment. The assay is classed as cell-based, rat. The note with it: Western blot, Figure 5B, p < 0.01.
The test system of assay [3] is JAK2. The assay is described as follows: Western blotting of JAK2 before and after peptide treatment. The following applies: Western blot, Figure 5B, p < 0.01. The assay is classed as cell-based, rat.
Assay [4] deals with skin-derived precursors (SKPs). Kind of assay: Western blot analysis of NFH protein. The following applies: three days after treatment, Figure 3B, peptides at 1 to 5 μM, less than VHL(157–171): VHL(157–168) p < 0.01, TAT p < 0.001. The assay is classed as cell-based, rat (neonate Wistar). The procedure:
as §1, §2, §3

Assay [5] has as its system JAK2. Kind of assay: Ubiquitination assay (IP anti-JAK2, IB anti-ubiquitin). The assay is classed as biochemical, rat. The note with it: incubation 4 h with ubiquitin, E1, E2 and peptide; vs no peptide or TAT, p < 0.001; Figure 5A. The procedure: We asked whether VHL(157–171) peptide-mediated neuronal differentiation was related to ubiquitination or not. […] After incubation for 4 h, cultured cells (1 × 10^6) were washed with ice-cold PBS and lysed in RIPA lysis buffer (Upstate, Charlottesville, VA, USA). The total protein was extracted from the cells, and the lysates were immunoprecipitated with anti-JAK2 antibody (Santa Cruz, San Diego, CA, USA) by using Protein A/G Sepharose (abcam, Cambridge, MA, USA). The immunoprecipitates were supplemented with 1 mM PMSF and the protease inhibitor cocktail. After 2 h, each sample was separated by SDS-PAGE and transferred electrophoretically to nitrocellulose filters. Western blots were probed with anti-ubiquitin antibody (Sigma-Aldrich) followed by horseradish peroxidase-conjugated secondary antibodies (Amersham). Protein bands were detected by using a chemical luminescence detection system (Amersham). Images were analyzed with LAS-1000 (Fujifilm).

In assay [6] the test system is skin-derived precursors (SKPs). The assay is described as follows: Whole-cell patch-clamp electrophysiology. The following applies: five days after peptide addition at 3 μM, holding potential −80 mV, steps of 20 mV from −100 to 100 mV, VHL(157–168) vs VHL(157–171) p < 0.01. The assay is classed as cell-based, rat (neonate Wistar). As to the method: as §1, §2
To record fast sodium and delayed rectifier potassium currents, we prepared extracellular and intracellular solutions as described previously. […] For recordings and data analysis we used CEZ-2300 (Nihon Kohden, Tokyo, Japan) and pCLAMP 6.0 software (Axon Instruments, Burlingame, CA, USA). Linear components of leak and capacitive currents were reduced by analogue circuitry and then canceled by the P/N method. Signals were sampled every 20 μs, and currents were filtered at 5 kHz. Data were additionally processed with Origin 5.0 (Microcal, Northhampton, MA, USA).
(Patch clamp records ionic current or voltage across a cell membrane.)

“Also recorded” adds a separate entry of the source.

For “YARAAARQARATLKERCLQVVRSLVK [VHL(157–171), NDD in pVHL: BC-box motif plus five amino acids, conjugated with PTD]”, the “Expression of ChAT” value in assay [1] (choline acetyltransferase) is listed as “high”. Also, the “Expression of TH” value in assay [1] (tyrosine hydroxylase) was “moderate”. Besides, in assay [2], the “Rate of GAD-positive (GABAnergic neuron-like) cells” value was “high rates of positive cells”, the “Rate of TH-positive (dopaminergic neuron-like) cells” value is recorded as “high rates of positive cells” and the “Rate of rhodopsin-positive cells” value is given as “high rates of positive cells”. Further, the STAT3 degradation entry in the assay on STAT3 was “JAK2 and STAT3 were indeed degraded”. Further, the JAK2 degradation entry in the assay with JAK2 [3] was “JAK2 and STAT3 were indeed degraded”. Besides, in assay [4], the “NFH protein amount / band” value is reported as “A distinct band for NFH; also recorded: significantly greater amount of anti-NFH protein”. Also, the JAK2 ubiquitination entry in the assay on JAK2 [5] is “had activity as an E3 ubiquitin ligase and mediated JAK2 ubiqutination; also recorded: ubiquitination was significantly enhanced”. The “Voltage-gated outward K+ and inward Na+ currents” value in assay [6] is “both large outward potassium currents and fast inward Na^+ currents”.
